The subject of data set [1] is M. tuberculosis H37Rv. The data set is described as follows: Combination studies, checkerboard method. The class given is cell-based, Mycobacterium tuberculosis. The settings on record: for MIC alone / MIC with IA25 / MIC with IIA3 / MIC with Ethambutol / MIC with INH / MIC with Rifampicin: checkerboard; for MIC with IA25: in combination with IA25; for MIC with IIA3: in combination with IIA3; for MIC with Ethambutol: in combination with Ethambutol; for MIC with INH: in combination with INH; for MIC with Rifampicin: in combination with Rifampicin. On the procedure: The efficacy of compounds IA25 and IIA3 (conc range 4 μg/ml to 0.007 μg/ml) in combination with currently used anti-TB drugs such as rifampicin, isoniazid and ethambutol (each drug tested at conc range 4 μg/ml to […]), wherein the ratio of drugs was ranging between 0.1% to 50%, was determined in vitro using checkerboard method. The checkerboard procedure was performed based on the MIC values by the broth microdilution method. The checkerboard method was performed in 96 well U bottom microtitre plates. 100 microliters of 4× concentration of drug was added to first column of the plate. 50 microliters from first column was transferred to second column and was serially diluted in horizontal manner upto column 10 of the plate. Seven dilutions of 4× concentration of compound were prepared in eppendorfs and fifty microliters of each concentration was added vertically starting from eleventh column of row eight to row second of the plate. First row of the plate served as drug control. 100 microliters of 1:10 diluted of 1 Mc Farland inoculum was added to each well of the plate. Plates were then incubated at 37° C. for 14 days. MIC of drug alone and in presence of compound and vice versa was observed visually. […] The FIC index value for each concentration of two-drug combination was calculated and the minimum value was adopted.

A short description of data set [2]: In vivo pharmacokinetics, oral, mice. On the set-up: species or system Balb/c mice; Ka: unit not given here. The settings on record: 5 mg/kg oral, plasma. Here is the method:
Compounds were administered orally to mice (Balb/c mice) at a dose of 5 mg/kg as a suspension in 0.5% CMC and Tween 80. Samples were derived from plasma at different time points i.e. 0.16 h, 0.5 h, 1 h, 2 h, 4 h, 6 h, 8 h and 24 h, which were then analysed by LC-MS/MS to generate the required pharmacokinetic parameters.

Data set [3] in a line: Cytotoxicity assay (MTT) in macrophage J774 cells. The class given is cell-based. The settings on record: mouse, J774 macrophage cells; also called safety index. The gist of the method:
(§1)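 J774 cells seeded at 3×10^4 cells/cm^2 in RPMI with FCS reduced to 5%, then exposed to compounds at 40 μg/ml for 24 hrs. MTT reduction read at 450 nm; percentage cytotoxicity calculated relative to untreated cells.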

Data set [4] deals with macrophage J774 cells line. In words: Cytotoxicity assay (MTT) in macrophage J774 cells. The class given is cell-based. The conditions noted are these: J774 cells, 24 hrs, MTT. The gist of the method: as §1
Data set [5] relates to M. tuberculosis H37Rv (ATCC 27294). In words: MIC by broth dilution method, M. tuberculosis H37Rv. Type of data set: cell-based. The settings on record: Mycobacterium tuberculosis.
[6] abbreviates: FIC A, drug in combination with IA25.
Setting [7] is: FIC A, drug in combination with IIA3.
The mark [8] stands for this setting: 504 h, read-out: MIC M. tb H37Rv, broth dilution, 3 weeks.
The mark [9] stands for this setting: read-out: MIC value, text summary: sensitive H37Rv as well as MDR and XDR strains of M. tuberculosis.
Setting [10] is: 504 h, broth dilution, 3 weeks, read-out: MIC M. tb H37Rv.
[11] abbreviates: FIC B, compound in combination with Ethambutol.
[12] abbreviates: FIC B, compound in combination with INH.
The mark [13] stands for this setting: FIC B, compound in combination with Rifampicin.

The source of these data is patent US9845330B2, “6-nitro-2,3-dihydroimidazo[2,1-b]oxazoles and a process for the preparation thereof” (priority 2013, dated 2017).

Values after ≈ are worked out from the molar mass of the structure shown. Where two headings read alike, the source gives them in different places.

`CO[C@H]1/C=C/O[C@@]2(C)Oc3c(C)c(O)c4c(O)c(c(/C=N/N5CCN(C)CC5)c(O)c4c3C2=O)NC(=O)/C(C)=C\C=C\[C@H](C)[C@H](O)[C@@H](C)[C@@H](O)[C@@H](C)[C@H](OC(C)=O)[C@@H]1C` [Rifampicin, reference compound]: the “FIC (MIC combination/MIC alone)” value in data set [1] (setting [6]) is reported as “FIC A = 0.25”. In addition, in data set [1] (setting [7]), the “FIC (MIC combination/MIC alone)” value was “FIC A = 0.25”. In addition, in data set [1], the MIC alone was 0.12 µg/mL, the MIC with IA25 came to 0.03 µg/mL and the MIC with IIA3 worked out at 0.06 µg/mL.

For `CC[C@@H](CO)NCCN[C@@H](CC)CO` [Ethambutol, reference compound], in data set [1] (setting [6]), the “FIC (MIC combination/MIC alone)” value is recorded as “FIC A = 0.25”. Further, the “FIC (MIC combination/MIC alone)” value in data set [1] (setting [7]) is listed as “FIC A = 0.5”. Also, in data set [1], the MIC alone was 1 µg/mL, the MIC with IA25 is 0.25 µg/mL and the MIC with IIA3 amounted to 0.5 µg/mL.

As to `C[C@]1(COc2ccc(N3CCC(Oc4ccc(OC(F)(F)F)cc4)CC3)cc2)Cn2cc([N+](=O)[O-])nc2O1` [OPC-67683, reference compound], in data set [2], the CLB amounted to 4.3 mL/h/kg, the maximum concentration (Cmax) was 668 nM, the Tmax worked out at 2.00 h and the Vdarea worked out at 0.76 L/kg. Further, the t1/2absorption in data set [2] was found to be 38.4 min. The AUC in data set [2] (Balb/c, mouse) is 9.32 µM·h.

`C[C@]1(COc2ccc(-c3cc(COc4ccc(OC(F)(F)F)cc4)on3)cc2)Cn2cc([N+](=O)[O-])nc2O1` [IC13, (R)-2-{4-[5-(4-trifluoromethoxyphenoxymethyl)isoxazol-3-yl]phenoxymethyl}-2,3-dihydro-2-methyl-6-nitroimidazo[2,1-b]oxazole]: the selectivity ratio at 24 h, 40 μg/ml in data set [3] was over 10. Besides, the Cytotoxicity in data set [4] is over 40 µg/mL. Further, in data set [5] (setting [8]), the MIC is 0.12 µg/mL (≈ 0.225 µM). Besides, in data set [5] (setting [9]), the MIC is under 1 µg/mL. In data set [2], this compound showed a CLB of 3.3 mL/h/kg, a Ka of 1.21, a Vdarea of 0.13 L/kg and a t1/2absorption of 34.2 min. Besides, the peak level in data set [2] (Balb/c, mouse, po, 5 mg/kg) (Cmax) was 2530 nM. In addition, in data set [2] (Balb/c, mouse), the AUC worked out at 33.7 µM·h. The Tmax in data set [2] (Balb/c, mouse, read-out: Tmax) stood at 2 h.

Regarding `NNC(=O)c1ccncc1` [INH, isoniazid, reference compound], the “FIC (MIC combination/MIC alone)” value in data set [1] (setting [6]) was “FIC A = 0.25”. Moreover, the “FIC (MIC combination/MIC alone)” value in data set [1] (setting [7]) is “FIC A = 0.5”. In data set [1], the MIC alone worked out at 0.25 µg/mL, the MIC with IA25 is 0.06 µg/mL and the MIC with IIA3 worked out at 0.12 µg/mL.

In the case of `C[C@]1(COc2cccc(-n3cc(COc4ccc(OC(F)(F)F)cc4)nn3)c2)Cn2cc([N+](=O)[O-])nc2O1` [IA33], the selectivity ratio at 24 h, 40 μg/ml in data set [3] was over 10. The same compound displayed a Cytotoxicity in data set [4] of over 40 µg/mL. The minimal inhibitory concentration (MIC) in data set [5] (setting [10]) amounted to 0.12 µg/mL (≈ 0.225 µM). Besides, in data set [2], the CLB was 72 mL/h/kg, the Ka came to 0.478, the Vdarea was 0.25 L/kg and the t1/2absorption was 86.88 min. In data set [2] (Balb/c, mouse, po, 5 mg/kg), this compound showed a Cmax of 595 nM. In data set [2] (Balb/c, mouse), this compound registered an AUC of 3.95 µM·h. Besides, the Tmax in data set [2] (Balb/c, mouse, read-out: Tmax) worked out at 2 h.

For `C[C@]1(COc2ccc(-c3cc(COc4ccc(F)cc4)on3)cc2)Cn2cc([N+](=O)[O-])nc2O1` [IC14, (R)-2-{4-[5-(4-fluorophenoxymethyl)isoxazol-3-yl]phenoxymethyl}-2,3-dihydro-2-methyl-6-nitroimidazo[2,1-b]oxazole], the selectivity ratio at 24 h, 40 μg/ml in data set [3] was over 10. The compound also yielded a Cytotoxicity in data set [4] of over 40 µg/mL. In addition, the MIC in data set [5] (setting [8]) amounted to 0.06 µg/mL (≈ 0.129 µM). The MIC in data set [5] (setting [9]) is under 1 µg/mL. In data set [2], this compound came in with a CLB of 202 mL/h/kg, a Ka of 1.056, a Vdarea of 1.54 L/kg and a t1/2absorption of 39.4 min. Also, the Cmax in data set [2] (Balb/c, mouse, po, 5 mg/kg) was 353 nM. In addition, in data set [2] (Balb/c, mouse), the exposure (AUC) worked out at 1.55 µM·h. In data set [2] (Balb/c, mouse, read-out: Tmax), the time of peak concentration (Tmax) is 2 h.

For the compound `C[C@]1(COc2ccc(-n3cc(COc4ccc(OC(F)(F)F)cc4)nn3)cc2)Cn2cc([N+](=O)[O-])nc2O1` [IA25], the “FIC (MIC combination/MIC alone)” value in data set [1] (setting [11]) was “FIC B = 0.5”. Further, the “FIC (MIC combination/MIC alone)” value in data set [1] (setting [12]) is recorded as “FIC B = 0.25”. In addition, the “FIC (MIC combination/MIC alone)” value in data set [1] (setting [13]) was “FIC B = 0.5”. In data set [1], the MIC alone amounted to 0.12 µg/mL, the MIC with Ethambutol was 0.06 µg/mL, the MIC with INH is 0.03 µg/mL and the MIC with Rifampicin came to 0.06 µg/mL. The “FIC Index (FIC A + FIC B)” value in data set [1] (combination with Ethambutol) is listed as 0.75. The “FIC Index (FIC A + FIC B)” value in data set [1] (combination with INH) is listed as 0.5. In data set [1] (combination with INH (isoniazid)), the Observations entry is “synergistic effect”. For the same compound, the “FIC Index (FIC A + FIC B)” value in data set [1] (combination with Rifampicin) worked out at 0.75. Further, the selectivity ratio at 24 h, 40 μg/ml in data set [3] is over 10. This compound also returned a Cytotoxicity in data set [4] of over 40 µg/mL. For the same compound, the MIC in data set [5] (setting [10]) was 0.12 µg/mL (≈ 0.225 µM). Besides, in data set [2], the CLB is 7 mL/h/kg, the highest level (Cmax) was 1020 nM, the Ka is 1.71 and the Vdarea was 0.36 L/kg. In addition, the t1/2absorption in data set [2] amounted to 24.6 min. Moreover, in data set [2] (Balb/c, mouse, po, 5 mg/kg), the Cmax worked out at 1020 nM. The area under the curve (AUC) in data set [2] (Balb/c, mouse) was determined as 14 µM·h. The Tmax in data set [2] (Balb/c, mouse, read-out: Tmax) is 2 h.

`C[C@]1(COc2ccc(NC(=O)Nc3ccc(C(F)(F)F)cc3)cc2)Cn2cc([N+](=O)[O-])nc2O1` [IIA3, (R)-1-(4-trifluoromethylphenyl)-3-{4-(2-methyl-6-nitro-2,3-dihydroimidazo[2,1-b]oxazol-2-yl)methoxyphenyl}urea]: the “FIC (MIC combination/MIC alone)” value in data set [1] (setting [11]), in data set [1] (setting [12]) and in data set [1] (setting [13]) was “FIC B = 0.25” each time. Further, the MIC alone in data set [1] came out at 0.5 µg/mL. In addition, in data set [1], the MIC with Ethambutol is 0.12 µg/mL. In addition, the MIC with INH in data set [1] was 0.12 µg/mL. Moreover, in data set [1], the MIC with Rifampicin amounted to 0.12 µg/mL. For the same compound, the “FIC Index (FIC A + FIC B)” value came out at 0.75 in data set [1] (combination with Ethambutol), 0.75 in data set [1] (combination with INH) and 0.5 in data set [1] (combination with Rifampicin). Also, in data set [1] (combination with Rifampicin), the Observations entry was “synergistic effect”. In data set [3], the selectivity ratio at 24 h, 40 μg/ml is over 10. The Cytotoxicity in data set [4] was over 40 µg/mL. The minimum inhibitory concentration (MIC) in data set [5] (setting [10]) is 0.12 µg/mL (≈ 0.251 µM); in data set [5] (setting [9]) it was under 1 µg/mL.
